# Experiments:
# [1] = tested on: Phaemoniella chlamydospora (81pep); assay: Germination of the spores on malt-agar medium with fungicide; assay type: cell-based; conditions: at 0.05 mg/1
# Procedure: (§1) Formulation 3 was used in this experiment and was compared with two formulations 5 and 6, devoid of one of the two active ingredients but of identical composition (the quantity of active ingredient omitted is replaced with water).
# (§2) The fungi on which formulations 3, 5 and 6 were tested are Phaemoniella chlamydospora (81pep), Phaeoacremonium aleophilum (LR 23), Diplodia seriata (F98-01), Neofusicoccum parvum (NpSV) and Eutypa lata.
# (§3) The fungi are transferred to a malt-agar medium (15 g of malt and 20 g of agar per litre of deionized water, sterilized at 120° C. for 20 minutes) in a Petri dish for multiplication.
# (§4) The conidia of Phaemoniella chlamydospora and Phaeoacremonium aleophilum are obtained from cultures of these fungi. The conidia are obtained by rinsing the colony of fungi with a few millilitres of sterile deionized water.
# (§5) The suspension of conidia in deionized water is then adjusted to 100-200 conidia per μl.
# (§6) The culture medium is a malt-agar medium (15 g of malt and 20 g of agar per litre of deionized water, sterilized at 120° C. for 20 minutes).
# (§7) The medium containing the fungicides is prepared by diluting the formulation under investigation in deionized water, which is added to the culture medium. The mixture is then homogenized and distributed in Petri dishes with a diameter of 90 mm.
# (§8) The final concentrations of each active ingredient in the medium are as follows: 0.0005, 0.005, 0.05, 0.5, 5, 50 and 500 mg/L.
# (§9) 100 μl of a previously homogenized suspension of spores is deposited and spread over the surface of the culture medium.
# (§10) Two repetitions are carried out for each test.
# (§11) The percentage germination of the spores is evaluated relative to a control placed under the same conditions.
# (§12) Two Petri dishes are incubated at 25° C. for a time required for the spores of the control dish to have germinated between 90 and 100%.
# (§13) For each Petri dish, 200 spores are counted and the percentage of spores germinated is calculated.
# (§14) For each concentration of fungicide, the percentage efficacy of the active ingredient is determined by the following equation: […]
# [2] = tested on: Phaeoacremonium aleophilum (LR 23); assay: as above; assay type: cell-based
# Procedure: as §1, §2, §3, §4, §5, §6, §7, §8, §9, §10, §11, §12, §13, §14
# [3] = tested on: Neofusicoccum parvum (NpSV); assay: as above; assay type: cell-based; conditions: at the concentration tested
# Procedure: as §1, §2, §3
# The conidia of Neofusicoccum parvum are obtained from pycnidia that have developed on fragments of grapevines shoots.
# as §6
# The medium containing the fungicides is prepared by diluting the formulation under investigation in deionized water, which is added to the culture medium. […]
# (§15) The percentage germination of the spores is evaluated relative to a control placed under the same conditions. […]
# as §13, §14
# Eutypa lata = assay: as above; assay type: cell-based
# Procedure: as §1, §2, §3
# The ascospores of Eutypa lata are obtained from perithecia situated on vine plants that have died from Eutypiosis. The perithecia are decapitated superficially, isolated one by one and soaked in sterile water for approximately 2 hours. The concentration of ascospores is then adjusted to 100-200 conidia per μl.
# The culture medium is a malt-agar medium (15 g of malt and 20 g of agar per litre of deionized water, sterilized at 120° C. for 20 minutes). […]
# as §15, §13, §14
# [4] = tested on: Diplodia seriata (F98-01); assay: Mycelial growth on malt-agar medium with fungicide; assay type: cell-based; conditions: for concentration at which mycelial growth is inhibited completely: Example 6
# Procedure: (§16) Formulation 3 was used in this experiment and was compared with two formulations 5 and 6, is devoid of one of the two active ingredients but of identical composition (the quantity of active ingredient omitted is replaced with water).
# (§17) The fungi on which formulations 3, 5 and 6 were tested are Diplodia seriata (F98-01), Neofusicoccum parvum (NpSV), Eutypa lata (St309) and Formitiporia mediterranea (F2010-1).
# as §6, §7, §8
# (§18) Discs with a diameter of 6 mm, cut out with a punch, are placed in each dish in sterile conditions. Three repetitions are carried out for each test. The Petri dishes are incubated at 25° C. for a time necessary for the fungus to develop as far as 1 or 2 cm from the edges of a Petri dish.
# (§19) The percentage mycelial growth is evaluated relative to a control placed under the same conditions for each concentration of fungicide, by the following equation: […]
# (§20) The value of the concentration of the active ingredients required for inhibiting mycelial growth at 50% (IC50) or at 90% (IC90) is calculated from the regression straight line of the percentage efficacy as a function of the logarithm of the concentration of the fungicide.
# (§21) The value of the concentration of the fungicide that is lethal for the fungus is obtained according to the following methodology; the mycelial implants that have not developed on the culture medium with fungicide are transferred to a malt-agar culture medium, without fungicide. The Petri dishes are then incubated at ambient temperature. Failure of the mycelial implant to take is noted.
# (§22) The interactions between the fungicides in composition 3 are investigated by Wadley's method. IC50 and IC90 can be determined for each fungicide and for the fungicide combination from the curves plotted for each active ingredient used alone or for the combination.
# (§23) IC90 and the theoretical IC90 for the combination is then calculated using the following equation:
# (§24) The type and the level of the interaction F are then calculated by dividing the theoretical IC value by the experimental IC observed for the combination of fungicides (F=theoretical IC/experimental IC).
# (§25) The interactions are defined thus: • Additivity: F=1, • Synergy: F>1, • Antagonism: F<1.
# (§26) The efficacy of tetraconazole, cyproconazole alone or in combination with chlorothalonil or metiram zinc on mycelial growth was evaluated under the same conditions as in Example 4.
# (§27) The efficacy of tebuconazole in combination with another […] antifungal, metiram zinc, was also evaluated.
# Eutypa lata (St309) = assay: Mycelial growth on malt-agar medium with fungicide; assay type: cell-based
# Procedure: as §16, §17, §6, §7, §8, §18, §19, §20, §21, §22, §23, §24, §25, §26, §27
# [5] = tested on: Neofusicoccum parvum (NpSV); assay: Mycelial growth on malt-agar medium with fungicide; assay type: cell-based
# Procedure: as §16, §17, §6, §7, §8, §18, §19, §20, §21, §22, §23, §24, §25, §26, §27
# [6] = tested on: Formitiporia mediterranea (F2010-1); assay: Mycelial growth on malt-agar medium with fungicide; assay type: cell-based, Fomitoporia mediterranea; conditions: for fungicide (lethal) activity: at the concentrations tested; for concentration at which mycelial growth is inhibited completely: Example 6
# Procedure: as §16, §17, §6, §7, §8, §18, §19, §20, §21, §22, §23, §24, §25, §26, §27
# [7] = tested on: Phaeocremonium aleophilum; assay: Mycelial growth on malt-agar medium with fungicide (Example 6); assay type: cell-based
# Procedure: as §6, §7, §18, §19, §20
# as §21, with “noted. […]” for “noted.”
# as §26, §27
# [8] = tested on: Phaeomoniella chlamydospora; assay: as above; assay type: cell-based
# Procedure: as §6, §7, §18, §19, §20
# as §21, with “noted. […]” for “noted.”
# as §26, §27
# [9] = tested on: Neonectria galligena (Cylindrocarpon heteronema); assay: Growth inhibition by laser nephelometry in 96-well microplates; assay type: cell-based
# Procedure: (§28) For multicellular organisms such as fungi, the nephelometry method is used on sporulating strains (Joubert et al., Laser nephelometry applied in an automated microplate system to study filamentous fungus growth, Biotechniques 48: 399-404, 2010).
# (§29) The strains are multiplied on suitable agar media in an oven at 20° C., for 8 days before their use, so as to be in their exponential growth phase. The fungal suspension is prepared extemporaneously at a concentration of […] for Pc and […] for Ch.
# (§30) 100 μl of the suspension is used for the tests.
# (§31) The tests are carried out in 96-well microplates. Doses of 0 ppm, 0.1 ppm, 0.3 ppm, 1 ppm, 3 ppm, 10 ppm, 30 ppm, 100 ppm, 300 ppm, 1000 ppm and 3000 ppm (final concentration of the substance) will be tested per product.
# (§32) Three technical repetitions are carried out per modality (target species/formulation).
# (§33) Controls are added per target pathogenic agent: one positive growth control and the products alone at the highest doses.
# (§34) Nephelometry measurements (RNU) are carried out for 60 h, every 30 minutes and the growth values are measured to study the growth inhibition effect relative to the fungal controls.
# Phytophthora cactorum = assay: as above; assay type: cell-based; conditions: nephelometry for 60 h
# Procedure: as §28, §29, §30, §31, §32, §33, §34
compound,measurement,setting,value
CC(C)(C)C(O)(CCc1ccc(Cl)cc1)Cn1cncn1 (stereo not shown) [tebuconazole],inhibition of germination of the spores,[1],inhibit germination of the spores completely
same,concentration from which elongation of the spores is inhibited,[2],≥ 5 mg/L
same,inhibition of germination of the spores,[2]; at the concentrations tested (0.0005 to 500 mg/L),does not prevent germination of the spores
same,inhibition of germination of the spores,[3],does not inhibit germination of the spores
same,concentration that inhibits germination of the spores,Eutypa lata,50 mg/1
same,IC50,"[4]; Diplodia seriata, Example 5, mycelial growth, unit not given (concentrations tested in mg/L)",6 ng/mL
same,concentration from which mycelial growth is inhibited completely,[4]; Example 5,≥ 50 mg/L
same,lethal concentration,[4]; Example 5,500 mg/L
same,concentration from which mycelial growth is inhibited completely,Eutypa lata (St309); Example 5,≥ 0.5 mg/L
same,lethal concentration,"Eutypa lata (St309); Example 5, implants transferred to medium without fungicide",500 mg/L
same,concentration from which mycelial growth is inhibited completely,[5]; Example 5,≥ 0.5 mg/L
same,lethal concentration,[5]; Example 5,500 mg/L
same,IC50,"[5]; Neofusicoccum parvum, Example 5, mycelial growth, unit not given (concentrations tested in mg/L)",13 ng/mL
same,concentration from which mycelial growth is inhibited completely,[6]; Example 5,≥ 0.5 mg/L
same,IC50,"[6]; Example 5, mycelial growth, unit not given (concentrations tested in mg/L)",3 ng/mL
same,fungicide (lethal) activity,[6],None of the concentrations tested is lethal
same,concentration at which mycelial growth is inhibited completely,[7],50 mg/L
same,concentration at which the substance is fungicidal (lethal dose),[7],100 mg/L
same,concentration at which mycelial growth is inhibited completely,[8],50 mg/L
same,concentration at which the substance is fungicidal,[8],100 mg/L
same,lethal dose,[9],1000 ppm
same,IC50,"[9]; growth, nephelometry for 60 h",around 230 ppm
same,IC90,"[9]; growth, nephelometry for 60 h",around 800 ppm
same,50% inhibitory concentration (IC50),Phytophthora cactorum,around 200 ppm
same,90% inhibitory concentration (IC90),Phytophthora cactorum,< 1000 ppm
FC(F)C(F)(F)OCC(Cn1cncn1)c1ccc(Cl)cc1Cl (stereo not shown) [tetraconazole],concentration at which mycelial growth is inhibited completely,[4],500 mg/L
same,concentration from which mycelial growth is inhibited completely,Eutypa lata (St309); Example 6,≥ 5 mg/L
same,lethal dose,Eutypa lata (St309); Example 6,50 mg/L
same,concentration at which mycelial growth is inhibited completely,[5]; Example 6,500 mg/L
same,concentration at which mycelial growth is inhibited completely,[6],10 mg/L
same,fungicide (lethal) activity,[6],fungicidal
same,concentration at which mycelial growth is inhibited completely,[7],50 mg/L
same,concentration at which the substance is fungicidal (lethal dose),[7],100 mg/L
same,concentration at which mycelial growth is inhibited completely,[8],50 mg/L
same,concentration at which the substance is fungicidal,[8],100 mg/L
metiram zinc,concentration at which mycelial growth is inhibited completely,[4],500 mg/L
same,activity on mycelial growth,Eutypa lata (St309); Example 6,low activity
same,activity on mycelial growth,"Eutypa lata (St309); Example 6, listed as Metiram zinc",do not inhibit the mycelial growth of Eutypa lata completely
same,activity on mycelial growth,[5]; Example 6,moderate activity
same,concentration at which mycelial growth is inhibited completely,[6],500 mg/L
same,fungicide (lethal) activity,[6],fungicidal
same,concentration at which mycelial growth is inhibited completely,[7],100 mg/L
same,concentration at which mycelial growth is inhibited completely,[8],100 mg/L

# Reference: patent US20180160679A1, “PROCESS FOR TREATING PERENNIAL PLANT WOOD DISEASES” (priority 2015, published 2018)
